Measured values reported in article PMC10762035, “Molecular basis of human trace amine-associated receptor 1 activation” (Nature Communications, 2024).
Values joined by “and” are separate entries in the source; they are usually repeats but may differ in a detail not shown here. Equal values may be shown once. Where a name gives a salt, the structure may show the parent alone.

Experiments:
hTA1 [1] = target: T1, hTA1 (Homo sapiens, UniProt Q96RJ0); test: Screen of 89 aminergic compounds at 10 µM, cAMP accumulation in HEK293T cells; format: cell-based; settings: quadruplicate values; screen at 10 µM;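 note: HEK293T cells co-transfected with hTA1 and GloSensor cAMP reporter, cAMP accumulation detected by luminescence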
T1 construct: expressed in transfected cells; host or cells: HEK293T
T1 sequence (Q96RJ0 1-339): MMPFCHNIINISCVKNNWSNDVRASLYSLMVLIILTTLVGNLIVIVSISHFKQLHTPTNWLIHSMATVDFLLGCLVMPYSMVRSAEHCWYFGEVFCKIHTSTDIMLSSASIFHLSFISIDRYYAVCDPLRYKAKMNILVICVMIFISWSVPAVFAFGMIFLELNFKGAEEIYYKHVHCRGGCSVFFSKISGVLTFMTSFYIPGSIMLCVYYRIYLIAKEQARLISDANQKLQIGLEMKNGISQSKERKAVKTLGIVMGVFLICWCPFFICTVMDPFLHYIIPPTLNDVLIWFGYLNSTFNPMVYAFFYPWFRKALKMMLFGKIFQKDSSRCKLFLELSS

hTA1 [2] = target: T1, hTA1; test: GloSensor cAMP accumulation assay, concentration response, wild-type hTA1 in transfected HEK293T cells; format: cell-based; settings: log[Compound], replicate wells;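 note: luminescence read after 30 min compound exposure at room temperature in cells preloaded with D-Luciferin, reflecting Gs-driven cAMP rise, efficacy scaled to the maximal β-PEA response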

For `CCN(CC)C(=O)[C@@H]1C=C2c3cccc4[nH]c(Br)c(c34)C[C@H]2N(C)C1` [2-Br LSD], the “Luminescence for Screening Data” value (hTA1 [1]) was 10.4 and 10.1 and 9.5 and 7.6.

In the case of `CCCCCCCCCOc1ccc2[nH]cc(CCN)c2c1` [5-nonyloxytryptamine], the “Luminescence for Screening Data” value (hTA1 [1]) is reported as 10.6 and 10.3 and 13.3 and 10.2.

`NCCc1c[nH]c2ccc(O)cc12` [5HT] was tested, and the “Normalized Luminescence Counts for WT hTA1” value (hTA1 [2]; M = -5) was 22.7551 and 23.5409 and 27.4699 and 21.1146 and 16.9666 and 15.5049, the “Normalized Luminescence Counts for WT hTA1” value (hTA1 [2]; M = -5.522) was 12.7034 and 13.2601 and 13.0636 and 11.1989 and 10.4878 and 9.8162 and the “Normalized Luminescence Counts for WT hTA1” value (hTA1 [2]; M = -6) was 16.6652 and 17.3528 and 14.4388 and 9.54 and 6.932 and 6.5768. For the same compound, the “Normalized Luminescence Counts for WT hTA1” value (hTA1 [2]; M = -6.522) was 9.953 and 14.2096 and 13.2928 and 9.698 and 6.261 and 7.564, the “Normalized Luminescence Counts for WT hTA1” value (hTA1 [2]; M = -7) was 9.7567 and 9.593 and 11.8194 and 6.3 and 5.55 and 6.814 and the “Normalized Luminescence Counts for WT hTA1” value (hTA1 [2]; M = -7.522) was 9.298 and 11.492 and 8.12 and 4.167 and 4.444 and 4.799. For the same compound, the “Normalized Luminescence Counts for WT hTA1” value (hTA1 [2]; M = -8) was 9.298 and 7.236 and 9.822 and 3.732 and 3.653 and 4.048, the “Normalized Luminescence Counts for WT hTA1” value (hTA1 [2]; M = -8.522) was 4.387 and 5.369 and 8.578 and 1.7177 and 3.258 and 2.5868 and the “Normalized Luminescence Counts for WT hTA1” value (hTA1 [2]; M = -9) was 3.339 and 1.604 and 3.176 and 2.073 and 0.9671 and 0.7301. The “Normalized Luminescence Counts for WT hTA1” value (hTA1 [2]; M = -9.522) was 0.589 and 1.473 and 1.408 and 0.01898 and -0.2575 and -0.4946, the “Normalized Luminescence Counts for WT hTA1” value (hTA1 [2]; M = -10) was 1.702 and 0.2289 and 0.1307 and -0.9291 and -0.09953 and -0.2971 and the “Normalized Luminescence Counts for WT hTA1” value (hTA1 [2]; M = -10.522) was 0.6218 and 0.8182 and -0.295 and -1.285 and -0.7316 and -1.364. For the same compound, the “Normalized Luminescence Counts for WT hTA1” value (hTA1 [2]; M = -11) was -0.2622 (2×) and -0.5897 and 0.335 and 0.177 and -0.02052, the “Normalized Luminescence Counts for WT hTA1” value (hTA1 [2]; M = -11.522) was 0.06517 and 0.3926 and -0.09854 and -0.1785 (2×) and 0.09799 and the “Normalized Luminescence Counts for WT hTA1” value (hTA1 [2]; M = -12) was 0.1307 and 0.5563 and -0.6551 and -0.6131 and 0.256 and 0.2955. The “Normalized Luminescence Counts for WT hTA1” value (hTA1 [2]; M = -12.522) was -0.2295 and 0.1307 and -0.1313 and 0.6906 and 0.8486 and -0.6921.

In the case of `Cc1nn(C)c(C)c1-c1cccc2c1CC[C@H](N(C)C)C2` [AS19], the “Luminescence for Screening Data” value (hTA1 [1]) is reported as 9.8 and 9.9 and 8 and 6.8.

For `CN(C)c1ccc(/C=C/c2cc[n+](C)cc2)cc1.[I-]` [ASP-iodide], the “Luminescence for Screening Data” value (hTA1 [1]) was 6.9 and 6.2 and 4.9 and 4.4.

With `C=CCc1ccccc1OCC(O)CNC(C)C` (stereo not shown) [Alprenolol] the “Luminescence for Screening Data” value (hTA1 [1]) was 10.1 and 8.4 and 7.8 and 6.7.

With `Cl.O=C(c1ccc(F)cc1)C1CCN(CCn2c(=S)[nH]c3ccccc3c2=O)CC1` [Altanserin hydrochloride hydra] the “Luminescence for Screening Data” value (hTA1 [1]) was 9.1 and 6 and 8.8 and 5.9.

For `N=C(N)NC(=O)c1nc(Cl)c(N)nc1N` [Amiloride], the “Luminescence for Screening Data” value (hTA1 [1]) was 9.5 and 8.8 and 7 and 8.1.

For `CCN1CCCC1CNC(=O)c1cc(S(=O)(=O)CC)c(N)cc1OC` (stereo not shown) [Amisulpride], the “Luminescence for Screening Data” value (hTA1 [1]) was 8 and 6.7 and 8.1 and 7.

In the case of `O=C1CCc2ccc(OCCCCN3CCN(c4cccc(Cl)c4Cl)CC3)cc2N1` [Aripiprazole], the “Luminescence for Screening Data” value (hTA1 [1]) is reported as 3.9 and 3.4 and 5.3 and 4.7.

`CN1CC2c3ccccc3Oc3ccc(Cl)cc3C2C1` (stereo not shown) [Asenapine maleate] was tested, and the “Luminescence for Screening Data” value (hTA1 [1]) was 139.1 and 129.2 and 126.2 and 110.4.

For `NCCc1ccccc1` [B-PEA], the “Luminescence for Screening Data” value (hTA1 [1]) was 160.4 and 164.2 and 180.4 and 167.

With `CN1CCC(c2c[nH]c3ccc(O)cc23)CC1` [BRL 54443] the “Luminescence for Screening Data” value (hTA1 [1]) was 10 and 7.1 and 8.1 and 6.4.

`C=CCN1C[C@H](C(=O)N(CCCN(C)C)C(=O)NCC)C[C@@H]2c3cccc4[nH]cc(c34)C[C@H]21` [Cabergoline] was tested, and the “Luminescence for Screening Data” value (hTA1 [1]) was 7.4 and 6.2 and 7 and 5.7.

With `CN/C(=N/CCSCc1nc[nH]c1C)NC#N` [Cimetidine] the “Luminescence for Screening Data” value (hTA1 [1]) was 8.3 and 6.6 and 8.6 and 5.4.

`N.N.[Cl][Pt][Cl]` [Cisplatin] was tested, and the “Luminescence for Screening Data” value (hTA1 [1]) was 5.8 and 6.4 and 6.9 and 6.2.
